# Data reported in patent publication US20210363495A1, “CULTURE MEDIA FOR PLURIPOTENT STEM CELLS” (Yeda Research and Development Co. Ltd., priority 2019, published 2021).
# B1: ACTIVIN A: recombinant cytokine, activator of TGF/ACTIVIN pathway (protein)
# chain: MPLLWLRGFLLASCWIIVRSSPTPGSEGHSAAPDCPSCALAALPKDVPNSQPEMVEAVKKHILNMLHLKKRPDVTQPVPKAALLNAIRKLHVGKVGENGYVEIEDDIGRRAEMNELMEQTSEIITFAESGTARKTLHFEISKEGSDLSVVERAEVWLFLKVPKANRTRTKVTIRLFQQQKHPQGSLDTGEEAEEVGLKGERSELLLSEKVVDARKSTWHVFPVSSSIQRLLDQGKSSLDVRIACEQCQESGASLVLLGKKKKKEEEGEGKKKGGGEGGAGADEEKEQSHRPFLMLQARQSEDHPHRRRRRGLECDGKVNICCKKQFFVSFKDIGWNDWIIAPSGYHANYCEGECPSHIAGTSGSSLSFHSTVINHYRMRGHSPFANLKSCCVPTKLRPMSMLYYDDGQNIIKKDIQNMIVEECGCS
# modifications: homo sapiens
# What was measured:
# [1] = tested on: Tet-OFF-METTL3 hESCs (WIBR3, clone W3G4); assay: Pluripotency (OCT4+) maintenance of Tet-OFF-METTL3 hESCs in the presence of DOX; format: cell-based, human; settings: for expanding METTL3 depleted cells when substituted for TNKi: optimized ENHSM conditions without TNKi, DOX up to 4 passages; for expansion of Tet-OFF-METTL3 on DOX: individual small molecule supplemented to NHSM, Geltrex coated plates, no MEFs
# Excerpt: FIGS. 1A-I Defining enhanced human naive conditions compatible with expanding METTL3 depleted PSCs. A. Strategy for generating human ESCs with TET-OFF regulated expression of METTL3 m^6A methyltransferase enzyme. B. Western blot analysis for correctly engineered human ESCs with TET-OFF METTL3 regulation, before and after DOX treatment. C. Representative images for human METTL3 TET-OFF engineered cells in different conditions with or without DOX addition. […] D. Scheme depicting strategy for conducting a screen for identifying a small molecule or cytokine additive to previously described human naïve NHSM conditions that allow maintain pluripotency in TET-OFF METTL3 human stem cells after adding DOX. E. W3G4 cells were maintained in the presence of DOX for up to 4 passages in different conditions and stained for OCT4 to quantify percentage of cells that retained their pluripotency. […] F. OCT4+ pluripotency maintenance in NHSM conditions supplemented with various TNK inhibitors and DOX to repress METTL3 expression. G. Quantification of ΔPE-OCT4-GFP knock in naïve pluripotency reporter, in variety of primed (red) and naïve conditions (blue). Mean fluorescence intensity values (MFI) are indicated. H. Quantification of ΔPE-OCT4-GFP knock in naïve pluripotency reporter in variety of conditions with various concentrations of ACTIVIN A recombinant cytokine. […] I. Representative phase contrast images in human ESCs expanded in NHSM+TNKi conditions showing their maintenance of pluripotent domed-like morphology even in the presence of FGFRi.
# In order to identify culture conditions which capture human naïve PSC, the present inventors looked for agents which are capable of maintaining stem cells in a pluripotent state in the absence of defined epigenetic repressors. Human knock-in WIBR3 hESC lines with conditional inducible ablation expression of METTL3 were engineered (FIG. 1A). This was carried out by introducing an exogenous METTL3 transgene under the regulation of Tet-OFF promoter (Liao et al., 2015), followed by CRISPR/Cas9 mediated ablation of both endogenous human METTL3 alleles. Two resultant clones were validated for METTL3 expression only from the exogenous allele, which can be shut off by addition of DOX to the media (called Tet-OFF-METTL3 lines) (FIG. 1B).
# The latter further support rewiring toward naïve pluripotency in NHSM conditions. […] Candidate molecules were tested for the ability to enrich NHSM conditions that allow Tet-OFF-METTL3 to be maintained on Geltrex coated plates in the presence of DOX.
# NHSM conditions were supplemented with individual small molecules (FIG. 1D). […] IWR1 is a WNT inhibitor (WNTi) small molecule that stabilizes AXIN protein in the cytoplasm by inhibiting Tankyrase enzyme (abbreviated herein as TNK inhibitor—TNKi).
# [2] = tested on: human ESCs; assay: Domed morphology under TGF/ACTIVIN signalling blockade; format: cell-based
# Excerpt: FIGS. 1A-I Defining enhanced human naive conditions compatible with expanding METTL3 depleted PSCs. A. Strategy for generating human ESCs with TET-OFF regulated expression of METTL3 m^6A methyltransferase enzyme. B. Western blot analysis for correctly engineered human ESCs with TET-OFF METTL3 regulation, before and after DOX treatment. C. Representative images for human METTL3 TET-OFF engineered cells in different conditions with or without DOX addition. […] E. W3G4 cells were maintained in the presence of DOX for up to 4 passages in different conditions and stained for OCT4 to quantify percentage of cells that retained their pluripotency. […] G. Quantification of ΔPE-OCT4-GFP knock in naïve pluripotency reporter, in variety of primed (red) and naïve conditions (blue). Mean fluorescence intensity values (MFI) are indicated. H. Quantification of ΔPE-OCT4-GFP knock in naïve pluripotency reporter in variety of conditions with various concentrations of ACTIVIN A recombinant cytokine. […]
# FIGS. 3A-I. Defining enhanced human naive conditions compatible with blocking TGF/ACTIVIN signaling. […] F. Mass spectrometry-based quantification of m^6A on isolated mRNA from the indicated cell lines and conditions. […]
# [3] = tested on: WIBR2 hESC carrying MECP2 fluorescent reporter alleles; assay: X chromosome reactivation, MECP2 two-colour reporter FACS; format: cell-based, human; settings: added to ENHSM without ERKi (0ENHSM) or with 0.33 microM ERKi (tENHSM)
# Excerpt: FIGS. 17A-D. Chromosome X reactivation status and DNA methylation profile in ENHSM based conditions. A. Schematic and FACS results following using WIBR2 (person 46XX) 29-9 hESC line that carries GFP and mCherry on each of the X chromosomes in the MECP2 locus. Parental 29-9 clone has the X chromosome carrying mCherry allele in the active state, and thus is positive only for mCherry and negative for GFP in the primed state. Upon transfer to ENHSM conditions, all cells turn on both X chromosomes and thus become double positive for both fluorescent markers (GFP and mCherry). After transfer into primed conditions (i.e. repriming), cells start to inactivate the X chromosome again. B. RNA-FISH analysis for ATRX transcription in primed and ENHSM WIBR3 cells. Note ATRX is active on both X chromosomes only in ENHSM conditions. C. Western blot analysis for DNA methylation regulators, DNMT1 and UHRF enzymes. DNMT1 protein levels are maintained in all conditions. […] D. Global methylation histogram as calculated from primed samples, and naïve samples that were maintained in various conditions, including titrated ERKi supplementation, along with previously published Reset-naïve and primed samples (Takashima et al), and human ICM samples (Smith et al, Nature 2014, Guo et al, Nature 2014). […]
molecule,measurement,setting,value
COc1cccc(-c2cn(-c3ccc(CCN4CCC(O)CC4)cc3)c3ncnc(N)c23)c1 [CGP77675],maintenance of OCT4+ cells without ACTIVIN A,"[1]; TNKi supplemented optimized NHSM, no ACTIVIN A, on DOX",dramatically maintained the stability of dome like cells that were uniformly OCT4+
Cc1cccc(-c2nn(C(=S)Nc3ccccc3)cc2-c2ccnc3ccccc23)n1 [Condition A83-01],domed morphology after TGFRi,[2]; cells in ENHSM,maintained
same,domed morphology after TGFRi,[2]; cells in NHSM+TNKi,lose their pluripotent dome-like shaped morphology and differentiate
C[C@H](NC(=O)Cc1cc(F)cc(F)c1)C(=O)N[C@@H]1C(=O)N(C)c2ccccc2-c2ccccc21 [DBZ],maintenance of pre-X inactivation naïve state when ERKi is omitted or depleted,[3],allowed robust and feeder free maintenance of human naïve cells
O=C1Cc2c([nH]c3ccc(Br)cc23)-c2ccccc2N1 [Kenpaullone],expanding METTL3 depleted cells when substituted for TNKi,[1],none of them allowed expanding METTL3 depleted cells in vitro
CCCC(CCC)C(=O)O [VPA],expanding METTL3 depleted cells when substituted for TNKi,[1],none of them allowed expanding METTL3 depleted cells in vitro
Oc1nc(-c2ccc(C(F)(F)F)cc2)nc2c1CSCC2 [XAV939],expansion of Tet-OFF-METTL3 on DOX,[1],yielded a similar effect
O=C(Nc1cccc2cccnc12)c1ccc(N2C(=O)[C@@H]3[C@H](C2=O)[C@H]2C=C[C@@H]3C2)cc1 [exo-IWR1],expansion of Tet-OFF-METTL3 on DOX,[1],failed to do so
B1,maintenance of pre-X inactivation naïve state when ERKi is omitted or depleted,[3],did not block loss X reactivation
